Data taken from patent publication US7628987B2, “Vectors derived from antibodies for transferring substances into cells” (Institut Pasteur, priority 1997, dated 2009).

System: CCL39 cells
Experiment: Polyfection in the presence of glycerol, CCL39 cells
Type: cell-based, hamster
Details: glycerol 0.23 M, charge ratio 2.2, 5 h30
Procedure: Further, by way of comparison, transfection was carried out in the presence of polyethylene […] (PEI), 25 kDa (Aldrich, St Louis, Mo.) in a charge ratio of 2.2 in the presence of glycerol and 5 in the absence of glycerol.

Structure (SMILES): OCC(O)CO [glycerol]
- increase in polyfection (luciferase activity) induced by glycerol: 38 factor
